The values that follow are results of earlier work, collected in patent EP1017675B1, “HIGHLY LIPOPHILIC CAMPTOTHECIN DERIVATIVES” (BIONUMERIK PHARMACEUTICALS, INC., priority 1997, dated 1998).

The conditions of the data set: parenterally administered; fraction of the lactone form's potency.

As to `CC[C@@](O)(C(=O)O)c1cc2n(c(=O)c1CO)Cc1cc3ccccc3nc1-2` [carboxylate species], the “antitumor potency relative to the lactone form” value is on record as “one-tenth”.
